# Columns and labels:
# rabbit = conditions: Sub-acute dermal toxicity, new zealand white, Topical, dose end: 21 day, group: systemic
# rat [1] = conditions: Prenatal developmental toxicity study, wistar, Oral, Gavage/Intubation, dose end: 15 GD
# rat [2] = conditions: Carcinogenicity, fischer, Oral, Feed, dose end: 103 week, group: systemic
# rat [3] = conditions: Subchronic oral toxicity in rodents, fischer, Feed, dose end: 13 week, group: systemic
# mouse [4] = conditions: Subchronic oral toxicity in rodents, b6c3f1, Feed, dose end: 13 week, group: systemic
# mouse [5] = conditions: Carcinogenicity, b6c3f1, Oral, Feed, dose end: 103 week, group: systemic
# mouse [6] = conditions: Subchronic oral toxicity in rodents, b6c3f1, Water, dose end: 13 week, group: systemic
# rat [7] = conditions: Subchronic oral toxicity in rodents, fischer, Feed, dose end: 13 week, group: systemic; remark: listed apart in the source
# mouse [8] = conditions: Combined chronic toxicity/carcinogenicity; b6c3f1; Oral; Feed; dose end: 2 year; group: systemic; systemic / in life observation / body weight / body weight
# mouse [9] = conditions: Prenatal developmental toxicity study, cd1, Oral, Gavage/Intubation, dose end: 14 GD
# rat [10] = conditions: Combined chronic toxicity/carcinogenicity, fischer, Oral, Feed, dose end: 2 year, group: systemic
# rat [11] = conditions: Prenatal developmental toxicity study, sprague dawley, Oral, Gavage/Intubation, dose end: 15 GD
# mouse [12] = conditions: Subchronic oral toxicity in rodents, b6c3f1, Feed, dose end: 13 week, group: systemic; remark: listed apart in the source
# mouse [13] = conditions: Prenatal developmental toxicity study, cd1, Oral, Gavage/Intubation, dose end: 15 GD
# rat [14] = conditions: Combined chronic toxicity/carcinogenicity; fischer; Oral; Feed; dose end: 365 day; group: systemic; systemic / pathology gross / full gross necropsy / adenoma
# mouse [15] = conditions: Combined chronic toxicity/carcinogenicity; other; Oral; Feed; dose end: 365 day; group: systemic; systemic / pathology gross / full gross necropsy / lymphoma malignant
# rat [16] = conditions: Subchronic oral toxicity in rodents, other, Feed, dose end: 6 week, group: systemic, systemic / in life observation / body weight / body weight
# mouse [17] = conditions: Carcinogenicity; b6c3f1; Oral; Feed; dose end: 78 week; group: systemic; systemic / in life observation / mortality / mortality
# dog = conditions: Multigenerational reproductive toxicity study; beagle; Oral; Feed; dose end: 3 generation; group: reproductive; reproductive / reproductive performance / estrous cycle / abnormal
# mouse [18] = conditions: Multigenerational reproductive toxicity study, other, Oral, Feed, dose end: 5 generation
# rat [19] = conditions: Multigenerational reproductive toxicity study, sprague dawley, Oral, Feed, dose end: 2 generation
# rat [20] = conditions: Carcinogenicity, other, Oral, Feed, dose end: 78 week, group: systemic
# mouse [21] = conditions: Subchronic oral toxicity in rodents, b6c3f1, Feed, dose end: 6 week, group: systemic
# rat [22] = conditions: Multigenerational reproductive toxicity study, sprague dawley, Oral, Feed, dose end: 2 generation; remark: listed apart in the source
# [23] = systemic / in life observation / clinical signs / erythema
# [24] = systemic / in life observation / clinical signs / erythema + systemic / in life observation / body weight / body weight + systemic / in life…
# [25] = group: developmental, developmental / developmental malformation / eye / anophthalmia + developmental / developmental malformation / eye / microphthalmia + …
# [26] = group: maternal, systemic / in life observation / body weight / body weight gain + systemic / in life observation / clinical signs / labored respiration
# [27] = group: maternal, systemic / in life observation / body weight / body weight gain + systemic / in life observation / clinical signs / labored respiration + …
# [28] = systemic / pathology microscopic / liver / basophilic focus + systemic / pathology microscopic / liver / eosinophilic focus + systemic / …
# [29] = systemic / pathology microscopic / liver / hyperplasia + systemic / pathology microscopic / liver / basophilic focus + systemic / pathology …
# [30] = systemic / in life observation / body weight / body weight + systemic / pathology microscopic / kidney / pigmentation + systemic / in life …
# [31] = systemic / pathology microscopic / kidney / hemosiderosis + systemic / pathology microscopic / liver / hemosiderosis + systemic / pathology …
# [32] = systemic / in life observation / body weight / body weight
# [33] = systemic / in life observation / body weight / body weight + systemic / in life observation / clinical signs / emaciation + systemic / in …
# [34] = systemic / pathology microscopic / nose / degeneration
# [35] = systemic / in life observation / body weight / body weight + systemic / in life observation / clinical signs / aggressive behavior + …
# [36] = group: developmental, systemic / in life observation / body weight / fetal weight
# [37] = group: developmental, systemic / in life observation / body weight / fetal weight + developmental / developmental malformation / mouth / jaw / cleft palate
# [38] = group: maternal, systemic / in life observation / body weight / body weight gain
# [39] = group: maternal, systemic / in life observation / body weight / body weight gain + systemic / in life observation / body weight / body weight + systemic / in…
# [40] = systemic / pathology microscopic / liver / granuloma
# [41] = systemic / pathology microscopic / liver / granuloma + systemic / pathology microscopic / pituitary gland / adenoma
# [42] = group: developmental, developmental / developmental malformation / kidney / hydronephrosis + developmental / developmental malformation / ureter / hydroureter + …
# [43] = group: maternal, systemic / in life observation / body weight / body weight + systemic / in life observation / body weight / body weight gain + systemic / in…
# [44] = systemic / in life observation / body weight / body weight + systemic / in life observation / clinical signs / fur (altered appearance) + …
# [45] = group: developmental, developmental / developmental malformation / mouth / jaw / cleft palate + systemic / in life observation / body weight / fetal weight
# [46] = group: maternal, systemic / in life observation / body weight / body weight gain + systemic / in life observation / body weight / body weight + systemic / …
# [47] = group: offspring, systemic / pathology microscopic / blood / leukemia + systemic / pathology microscopic / blood vessel / [other] + systemic / pathology …
# [48] = group: parental, systemic / pathology microscopic / blood vessel / [other] + systemic / pathology microscopic / lung / carcinoma + systemic / hematology / …
# [49] = group: offspring, systemic / in life observation / clinical signs / [other]
# [50] = group: parental, systemic / organ weight / liver / relative to body weight
# [51] = systemic / in life observation / clinical signs / abdominogenital staining + systemic / in life observation / clinical signs / hunched …
# [52] = systemic / in life observation / body weight / body weight gain
# [53] = systemic / in life observation / body weight / body weight gain + systemic / in life observation / mortality / mortality
# [54] = group: offspring, developmental / offspring survival late / viability index / viability index + developmental / developmental landmark / preputial separation…
# [55] = group: parental, systemic / organ weight / adrenal gland / relative to body weight + systemic / organ weight / kidney / relative to body weight + systemic / …
smiles,measurement,setting,value
Cc1cc(O)ccc1Cl [4-Chloro-3-methylphenol],LOAEL,rabbit; [23],10 mg/kg/day
same,NOAEL,rabbit; [23],< 10 mg/kg/day
same,LEL,rabbit; [24],10 mg/kg/day
same,NEL,rabbit; [24],< 10 mg/kg/day
same,LEL,rat [1]; [25],300 mg/kg/day
same,LOAEL,rat [1]; [25],300 mg/kg/day
same,NEL,rat [1]; [25],100 mg/kg/day
same,NOAEL,rat [1]; [25],100 mg/kg/day
same,LEL,rat [1]; [26],100 mg/kg/day
same,LOAEL,rat [1]; [26],100 mg/kg/day
same,NEL,rat [1]; [27],30 mg/kg/day
same,NOAEL,rat [1]; [27],30 mg/kg/day
Oc1ccc2ccccc2c1N=Nc1ccccc1 [C.I. Solvent Yellow 14],LOAEL,rat [2]; [28],25 mg/kg/day
same,NOAEL,rat [2]; [28],12.5 mg/kg/day
same,LEL,rat [2]; [29],12.5 mg/kg/day
same,NEL,rat [2]; [29],< 12.5 mg/kg/day
same,NEL,rat [3]; [30],12.5 mg/kg/day
same,NOAEL,rat [3]; [30],25 mg/kg/day
same,LOAEL,rat [3]; systemic / in life observation / body weight / body weight + systemic / pathology microscopic / kidney / pigmentation + systemic / pathology…,50 mg/kg/day
same,LEL,rat [3]; systemic / pathology microscopic / kidney / pigmentation,25 mg/kg/day
same,LOAEL,mouse [4]; [31],300 mg/kg/day
same,NEL,mouse [4]; [31],75 mg/kg/day
same,NOAEL,mouse [4]; [31],150 mg/kg/day
same,LEL,mouse [4]; systemic / pathology microscopic / spleen / hemosiderosis,150 mg/kg/day
same,LEL,mouse [5]; [32],75 mg/kg/day
same,LOAEL,mouse [5]; [32],150 mg/kg/day
same,NEL,mouse [5]; [32],< 75 mg/kg/day
same,NOAEL,mouse [5]; systemic / in life observation / body weight / body weight + systemic / in life observation / body weight / body weight gain,75 mg/kg/day
ON=C1CCCCC1 [Cyclohexanone oxime],LOAEL,mouse [6]; [33],> 1150 mg/kg/day
same,NOAEL,mouse [6]; [33],≥ 1150 mg/kg/day
same,LEL,mouse [6]; [34],132 mg/kg/day
same,NEL,mouse [6]; [34],< 132 mg/kg/day
CN(C)CCOC(c1ccccc1)c1ccccc1.Cl [Diphenhydramine hydrochloride],LOAEL,rat [7]; [32],31.3 mg/kg/day
same,NEL,rat [7]; [35],7.8 mg/kg/day
same,NOAEL,rat [7]; [35],15.7 mg/kg/day
same,LEL,rat [7]; systemic / pathology microscopic / liver / vacuolization cytoplasmic,15.7 mg/kg/day
same,LEL,mouse [8],21 mg/kg/day
same,LOAEL,mouse [8],46 mg/kg/day
same,NEL,mouse [8],< 21 mg/kg/day
same,NOAEL,mouse [8],21 mg/kg/day
same,LEL,mouse [9]; [36],80 mg/kg/day
same,NEL,mouse [9]; [36],< 80 mg/kg/day
same,LOAEL,mouse [9]; [37],> 200 mg/kg/day
same,NOAEL,mouse [9]; [37],≥ 200 mg/kg/day
same,LEL,mouse [9]; [38],80 mg/kg/day
same,NEL,mouse [9]; [38],< 80 mg/kg/day
same,LOAEL,mouse [9]; [39],> 200 mg/kg/day
same,NOAEL,mouse [9]; [39],≥ 200 mg/kg/day
same,LEL,rat [10]; [40],7 mg/kg/day
same,NEL,rat [10]; [40],< 7 mg/kg/day
same,LOAEL,rat [10]; [41],> 15 mg/kg/day
same,NOAEL,rat [10]; [41],≥ 15 mg/kg/day
same,LEL,rat [11]; [42],100 mg/kg/day
same,LOAEL,rat [11]; [42],> 100 mg/kg/day
same,NEL,rat [11]; [42],50 mg/kg/day
same,NOAEL,rat [11]; [42],≥ 100 mg/kg/day
same,LEL,rat [11]; [43],100 mg/kg/day
same,LOAEL,rat [11]; [43],> 100 mg/kg/day
same,NEL,rat [11]; [43],50 mg/kg/day
same,NOAEL,rat [11]; [43],≥ 100 mg/kg/day
same,LOAEL,mouse [12]; [32],93.8 mg/kg/day
same,LEL,mouse [12]; [44],93.8 mg/kg/day
same,NEL,mouse [12]; [44],47 mg/kg/day
same,NOAEL,mouse [12]; [44],47 mg/kg/day
same,LEL,"mouse [13]; group: developmental, developmental / developmental malformation / mouth / jaw / cleft palate",80 mg/kg/day
same,LOAEL,mouse [13]; [45],> 160 mg/kg/day
same,NEL,mouse [13]; [45],40 mg/kg/day
same,NOAEL,mouse [13]; [45],≥ 160 mg/kg/day
same,LEL,mouse [13]; [38],80 mg/kg/day
same,LOAEL,mouse [13]; [46],> 160 mg/kg/day
same,NEL,mouse [13]; [46],40 mg/kg/day
same,NOAEL,mouse [13]; [46],≥ 160 mg/kg/day
NC(N)=O [Urea],LEL,rat [14],225 mg/kg/day
same,LOAEL,rat [14],> 225 mg/kg/day
same,NEL,rat [14],< 225 mg/kg/day
same,NOAEL,rat [14],≥ 225 mg/kg/day
same,LEL,mouse [15],675 mg/kg/day
same,LOAEL,mouse [15],> 675 mg/kg/day
same,NEL,mouse [15],< 675 mg/kg/day
same,NOAEL,mouse [15],≥ 675 mg/kg/day
"Clc1ccc(C(c2ccc(Cl)cc2)C(Cl)(Cl)Cl)cc1 [p,p'-DDT]",LEL,rat [16],28.1 mg/kg/day
same,LOAEL,rat [16],28.1 mg/kg/day
same,NEL,rat [16],15.8 mg/kg/day
same,NOAEL,rat [16],15.8 mg/kg/day
same,LEL,mouse [17],26.2 mg/kg/day
same,LOAEL,mouse [17],> 26.2 mg/kg/day
same,NEL,mouse [17],13.1 mg/kg/day
same,NOAEL,mouse [17],≥ 26.2 mg/kg/day
same,LEL,dog,1 mg/kg/day
same,LOAEL,dog,> 10 mg/kg/day
same,NEL,dog,< 1 mg/kg/day
same,NOAEL,dog,≥ 10 mg/kg/day
same,LEL,mouse [18]; [47],0.55 mg/kg/day
same,LOAEL,mouse [18]; [47],> 0.55 mg/kg/day
same,NEL,mouse [18]; [47],< 0.55 mg/kg/day
same,NOAEL,mouse [18]; [47],≥ 0.55 mg/kg/day
same,LEL,mouse [18]; [48],0.55 mg/kg/day
same,LOAEL,mouse [18]; [48],> 0.55 mg/kg/day
same,NEL,mouse [18]; [48],< 0.55 mg/kg/day
same,NOAEL,mouse [18]; [48],≥ 0.55 mg/kg/day
same,LEL,rat [19]; [49],10 mg/kg/day
same,LOAEL,rat [19]; [49],> 10 mg/kg/day
same,NEL,rat [19]; [49],1 mg/kg/day
same,NOAEL,rat [19]; [49],≥ 10 mg/kg/day
same,LEL,rat [19]; [50],10 mg/kg/day
same,LOAEL,rat [19]; [50],> 10 mg/kg/day
same,NEL,rat [19]; [50],1 mg/kg/day
same,NOAEL,rat [19]; [50],≥ 10 mg/kg/day
same,LOAEL,rat [20]; [32],21 mg/kg/day
same,NOAEL,rat [20]; systemic / in life observation / body weight / body weight + systemic / in life observation / clinical signs / abdominogenital staining + …,10.5 mg/kg/day
same,LEL,rat [20]; [51],10.5 mg/kg/day
same,NEL,rat [20]; [51],< 10.5 mg/kg/day
same,LEL,mouse [21]; [52],2.7 mg/kg/day
same,NEL,mouse [21]; [52],< 2.7 mg/kg/day
same,LOAEL,mouse [21]; [53],> 26.7 mg/kg/day
same,NOAEL,mouse [21]; [53],≥ 26.7 mg/kg/day
same,LEL,rat [22]; [54],25 mg/kg/day
same,LOAEL,rat [22]; [54],> 25 mg/kg/day
same,NEL,rat [22]; [54],3.44 mg/kg/day
same,NOAEL,rat [22]; [54],≥ 25 mg/kg/day
same,LOAEL,rat [22]; [55],> 25 mg/kg/day
same,NEL,rat [22]; [55],0.343 mg/kg/day
same,NOAEL,rat [22]; [55],≥ 25 mg/kg/day
same,LEL,"rat [22]; group: parental, systemic / organ weight / liver / absolute + systemic / organ weight / liver / relative to body weight + systemic / pathology microscopic / …",3.44 mg/kg/day
